Measured values published in PubChem BioAssay AID2060908 (Molecular Pharmacology Branch, DTP, NCI, 2025).
pIC50: −log10 of the molar value.

System: 186277-243-T-J2-PDC complex spheroids, viability
Experiment: Anticancer human tumor 186277-243-T-J2-PDC patient-derived colon adenocarcinoma cell line growth inhibition [RAS]
Details: for pIC50: curve of first compound; for viability, T/C: stronger effect = lower value; active = viability on the fitted dose curve at most 10% of control; inactive = the rest
In short: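 Multi-cell-type spheroids: tumor cells plus HUVEC endothelial cells and mesenchymal stem cells. RAS-pathway inhibitors were combined with targeted agents, each dosed in half-log steps down from clinical Cmax, or from 10 microM when Cmax was unknown.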

[1] = second compound 0.000949 µM, first compound 0.0316 µM
[2] = second compound 0.000949 µM, first compound 0.1 µM
[3] = second compound 0.000949 µM, first compound 0.316 µM
[4] = second compound 0.000949 µM, first compound 1 µM
[5] = second compound 0.003 µM, first compound 0.0316 µM
[6] = second compound 0.003 µM, first compound 0.1 µM
[7] = second compound 0.003 µM, first compound 0.316 µM
[8] = second compound 0.003 µM, first compound 1 µM
[9] = second compound 0.00949 µM, first compound 0.0316 µM
[10] = second compound 0.00949 µM, first compound 0.1 µM
[11] = second compound 0.00949 µM, first compound 0.316 µM
[12] = second compound 0.00949 µM, first compound 1 µM
[13] = second compound 0.03 µM, first compound 0.0316 µM
[14] = second compound 0.03 µM, first compound 0.1 µM
[15] = second compound 0.03 µM, first compound 0.316 µM
[16] = second compound 0.03 µM, first compound 1 µM
[17] = second compound 0.0949 µM, first compound 0.0316 µM
[18] = second compound 0.0949 µM, first compound 0.1 µM
[19] = second compound 0.0949 µM, first compound 0.316 µM
[20] = second compound 0.0949 µM, first compound 1 µM
[21] = second compound 0.3 µM, first compound 0.0316 µM
[22] = second compound 0.3 µM, first compound 0.1 µM
[23] = second compound 0.3 µM, first compound 0.316 µM
[24] = second compound 0.3 µM, first compound 1 µM
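Also: spheroids exposed to compounds for 7 days before viability read.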

CC(=O)OC12COC1CC(O)C1(C)C(=O)C(O)C3=C(C)C(OC(=O)C(O)C(NC(=O)OC(C)(C)C)c4ccccc4)CC(O)(C(OC(=O)c4ccccc4)C21)C3(C)C (centres undefined) + CCn1c(-c2cc(N3CCN(C)CC3)cnc2C(C)OC)c2c3cc(ccc31)-c1csc(n1)CC(NC(=O)C1CC1C)C(=O)N1CCCC(N1)C(=O)OCC(C)(C)C2
active: viability, T/C [1] 3.93% | viability, T/C [2] 3.88% | viability, T/C [3] 3.15% | viability, T/C [4] 3.35% | viability, T/C (second compound 0.000949 µM, first compound 3.16 µM) 3.1% | viability, T/C (second compound 0.000949 µM, first compound 10 µM) 2.87% | viability, T/C [5] 4.18% | viability, T/C [6] 3.41% | viability, T/C [7] 3.5% | viability, T/C [8] 3.44% | viability, T/C (second compound 0.003 µM, first compound 3.16 µM) 3.13% | viability, T/C (second compound 0.003 µM, first compound 10 µM) 3.15% | viability, T/C [9] 4.39% | viability, T/C [10] 3.52% | viability, T/C [11] 3.8% | viability, T/C [12] 3.26% | viability, T/C (second compound 0.00949 µM, first compound 3.16 µM) 3.42% | viability, T/C (second compound 0.00949 µM, first compound 10 µM) 3.14% | viability, T/C [13] 3.02% | viability, T/C [14] 3.1% | viability, T/C [15] 2.91% | viability, T/C [16] 3.18% | viability, T/C (second compound 0.03 µM, first compound 3.16 µM) 2.79% | viability, T/C (second compound 0.03 µM, first compound 10 µM) 2.64% | viability, T/C [17] 2.92% | viability, T/C [18] 2.71% | viability, T/C [19] 3.02% | viability, T/C [20] 2.38% | viability, T/C (second compound 0.0949 µM, first compound 3.16 µM) 2.59% | viability, T/C (second compound 0.0949 µM, first compound 10 µM) 2.18% | viability, T/C [21] 2.53% | viability, T/C [22] 2.47% | viability, T/C [23] 2.58% | viability, T/C [24] 2.35% | viability, T/C (second compound 0.3 µM, first compound 3.16 µM) 2.5% | viability, T/C (second compound 0.3 µM, first compound 10 µM) 2.28%
> 7.50: pIC50 (second compound 0.000949 µM) | pIC50 (second compound 0.003 µM) | pIC50 (second compound 0.00949 µM) | pIC50 (second compound 0.03 µM) | pIC50 (second compound 0.0949 µM) | pIC50 (second compound 0.3 µM)

Nc1ccn(C2OC(CO)C(O)C2(F)F)c(=O)n1 (centres undefined) + CCn1c(-c2cc(N3CCN(C)CC3)cnc2C(C)OC)c2c3cc(ccc31)-c1csc(n1)CC(NC(=O)C1CC1C)C(=O)N1CCCC(N1)C(=O)OCC(C)(C)C2
8.32: pIC50 (second compound 0.000949 µM)
inactive: viability, T/C (second compound 0.000949 µM, first compound 0.00316 µM) 73% | viability, T/C (second compound 0.003 µM, first compound 0.00316 µM) 48% | viability, T/C (second compound 0.00949 µM, first compound 0.00316 µM) 12.7%
active: viability, T/C (second compound 0.000949 µM, first compound 0.01 µM) 8.42% | viability, T/C [1] 6.7% | viability, T/C [2] 6.74% | viability, T/C [3] 5.65% | viability, T/C [4] 6.26% | viability, T/C (second compound 0.003 µM, first compound 0.01 µM) 6.35% | viability, T/C [5] 5.14% | viability, T/C [6] 4.45% | viability, T/C [7] 4.85% | viability, T/C [8] 4.99% | viability, T/C (second compound 0.00949 µM, first compound 0.01 µM) 6.13% | viability, T/C [9] 4.72% | viability, T/C [10] 4.79% | viability, T/C [11] 5.02% | viability, T/C [12] 4.12% | viability, T/C (second compound 0.03 µM, first compound 0.00316 µM) 7.84% | viability, T/C (second compound 0.03 µM, first compound 0.01 µM) 5.11% | viability, T/C [13] 4.83% | viability, T/C [14] 4.21% | viability, T/C [15] 4.75% | viability, T/C [16] 3.8% | viability, T/C (second compound 0.0949 µM, first compound 0.00316 µM) 5.28% | viability, T/C (second compound 0.0949 µM, first compound 0.01 µM) 4.76% | viability, T/C [17] 4.18% | viability, T/C [18] 3.97% | viability, T/C [19] 3.99% | viability, T/C [20] 3.27% | viability, T/C (second compound 0.3 µM, first compound 0.00316 µM) 5.42% | viability, T/C (second compound 0.3 µM, first compound 0.01 µM) 4.54% | viability, T/C [21] 3.86% | viability, T/C [22] 3.78% | viability, T/C [23] 3.81% | viability, T/C [24] 3.23%
> 8.50: pIC50 (second compound 0.003 µM) | pIC50 (second compound 0.00949 µM) | pIC50 (second compound 0.03 µM) | pIC50 (second compound 0.0949 µM) | pIC50 (second compound 0.3 µM)
